We go through four molecules from patent US20240105277A1, “DRUG DISCOVERY VIA REI[…] WITH THREE-D[…]” (priority 2022, published 2024).

Series [1] deals with T1, SARS-CoV-2 M^pro (Severe acute respiratory syndrome coronavirus 2, UniProt P0DTD1). To be noted: for fold decrease in IC50, initial vs final inhibition value: t=2 minutes vs 2-hour preincubation.
Experimental: To validate the computational leads, the remaining compounds were subjected to a primary SARS-CoV-2 M^pro activity inhibition screen in which they were pre-incubated with the enzyme and the initial velocities of cleavage of a FRET peptide were determined. The Z′-factor of the assay was 0.65, and the distribution of z-scores of compounds and positive (no inhibitor) and negative (no enzyme) controls is shown in FIG. 20.
For each compound, IC50 curves were generated using a continuous fluorescence assay. Reaction volumes of 40 μL were used in Corning half area 96-well plates. […] All the reactions were done in triplicate. For IC50 determination, the initial rate data was used, and the kinetic values were obtained directly from nonlinear regression of substrate-velocity curves in the presence of various concentrations of the inhibitor. The equation Y=(Top-Bottom)/(1+1{circumflex over (0)}(X-log IC50))+Bottom; X=log(concentration) and Y=binding; was used in the nonlinear regression.
(§1) Similar fluorescence assay was used to determine the time dependent IC50 curves. The plate with 10 μL of enzyme (1 μM) and 10 μL of the appropriate inhibitor dilution in 20 mM Tris-HCl, pH 7.35 with 1.25% DMSO was incubated at room temperature on a titer plate shaker with varying enzyme pre-incubation times (2, 15, 30, 45, 60 and 120 min) and centrifuged briefly at 1000 g just before incubation time ends. […] The equation Y=(Top-Bottom)/(1+1{circumflex over (0)}(X-log IC50))+Bottom; X=log(concentration) and Y=binding; was used in the nonlinear regression.
The next series relates to Vero E6 (CRL-1586) cells. Nature of the series: Cytotoxicity and cytopathic effect assay. It is filed as cell-based. To be noted: concentrations up to 10 μM, with or without PZ. Here is the method: The in vitro antiviral activity of all four hits was evaluated in Vero E6 (CRL-1586) cells. The antiviral properties of the inhibitors were assessed in the absence and presence of an efflux pump inhibitor (CP-100356, labeled PZ). […] Because of high cytotoxic effects of these compounds at high doses, the high doses were removed in the EC50 curve fit for these compounds.
Briefly, on the day of infection, 5×10^3 Vero E6 cells were seeded in 20 μL cell culture medium (containing 5% FBS) in 384-well plates, using a MultiFlo FX multi-mode microplate dispenser (BioTek). The same day, compounds were added to the cells (25 μL/well, in EMEM with 5% FBS, 1% P/S), with 2 wells per concentration. After 2 h of compound preincubation, 5 μL of virus was added to the wells using a multi-channel pipette to MOI=0.1. Viruses were diluted in EMEM with 5% FBS, 1% P/S and was kept on ice until cells were ready for infection. Eight virus-only control wells were included as the […]. The virus plus cells and the cells were used to normalize the data set. After 72 h, 30 μL of CellTiter-Glo (Promega) was dispensed into each well by a MultiFlo FX multi-mode microplate dispenser. After a 10 min incubation at room temperature, the plates were loaded into a Perkin EnVision multi-mode microplate reader to read luminescence.

The target of series [2] is T1, SARS-CoV-2 M^pro. The settings on record: for Ki / kinact (10^−3 s^−1): saturation profile, with SEM.
Experimental: as §1
Setting [3] is: read-out: IC50 (μM) - 2 min, 2 min co-incubation of enzyme and inhibitor, with standard deviation.
Where [4] appears, read: read-out: IC50 (μM) - 120 min, 120 min pre-incubation, with standard deviation.

Several values for one entry are separate records, joined by “and”; a condition that tells them apart may be missing. Equal entries are not always repeated. Where two headings read alike, the source gives them in different places.

On to `O=C(CCl)N1CCN(Cc2cccc3ccccc23)CC1` [Compound A], for which, on SARS-CoV-2 M^pro [1] (setting [3]), the IC50 is 16.3 ± 1.3 µM. For the same molecule, the IC50 on SARS-CoV-2 M^pro [1] (setting [4]) was determined as 0.3 ± 0.03 µM. Moreover, the “fold decrease in IC50, initial vs final inhibition value” at SARS-CoV-2 M^pro [1] is 54 fold. Also, the cytotoxic effect entry in the series with Vero E6 (CRL-1586) cells is reported as “less than other compounds”. On SARS-CoV-2 M^pro [2] (inactivation efficiency), the “kinact/KI” value turned out to be 441 ± 297 M⁻¹ s⁻¹. For the same molecule, on SARS-CoV-2 M^pro [2], the Ki is 11.5 µM and the “kinact (10^−3 s^−1)” value is 5.1 ± 0.5 10^−3 s^−1.
Turning to `O=C(CCl)N1CCN(Cc2cccc(Cl)c2)CC1` [Compound B], the IC50 on SARS-CoV-2 M^pro [1] (setting [3]) amounted to 12.8 ± 5.1 µM; at SARS-CoV-2 M^pro [1] (setting [4]), 0.4 ± 0.13 µM. On SARS-CoV-2 M^pro [1], the “fold decrease in IC50, initial vs final inhibition value” was determined as 32 fold. For the same molecule, the “kinact/KI” value at SARS-CoV-2 M^pro [2] (inactivation efficiency) is 697 ± 697 M⁻¹ s⁻¹. On SARS-CoV-2 M^pro [2], the Ki was 5.97 µM and 6 µM. Also, on SARS-CoV-2 M^pro [2], the “kinact (10^−3 s^−1)” value is given as 4.2 ± 0.8 10^−3 s^−1.
`COc1ccc(C2CC(c3ccccc3)=NN2C(=O)CCl)cc1OC` (centres unmarked) [Compound C]: on SARS-CoV-2 M^pro [1] (preliminary analysis, 2 min), the “IC50 fold lower than the IC50s of the other compounds” value was “at least 5 fold”. In addition, the IC50 at SARS-CoV-2 M^pro [1] (setting [3]) was 2.39 µM and 2.4 µM. Also, at SARS-CoV-2 M^pro [1] (read-out: IC50 after a 2-hour preincubation, 2-hour preincubation), the IC50 worked out at 0.16 µM. Besides, the “fold decrease in IC50, initial vs final inhibition value” on SARS-CoV-2 M^pro [1] amounted to 15 fold. On SARS-CoV-2 M^pro [2], the “kinact/KI fold higher relative to the other compounds” value is “at least 4 fold”; the Ki is 5.27 µM and 5.3 µM; the “kinact (10^−3 s^−1)” value was 23.5 ± 2.6 10^−3 s^−1. Further, the “kinact/KI (M^−1 s^−1)” value at SARS-CoV-2 M^pro [2] (inactivation efficiency) is 4,460 M^−1 s^−1.
In the case of `CC(C)CC1CN(C(=O)CCl)CCN1Cc1cccc(Cl)c1` (centres unmarked) [D], at SARS-CoV-2 M^pro [1] (setting [3]), the IC50 was determined as 16 ± 0.9 µM. In addition, on SARS-CoV-2 M^pro [1] (setting [4]), the IC50 stood at 0.41 ± 0.06 µM. Moreover, the “fold decrease in IC50, initial vs final inhibition value” at SARS-CoV-2 M^pro [1] came to 39 fold. At SARS-CoV-2 M^pro [2], the Ki was no less than 62.5 µM and the “kinact (10^−3 s^−1)” value was ≥16.6 10^−3 s^−1.
